According to ChEMBL document CHEMBL1157499, “Synthesis and biological evaluation of 1-(benzenesulfonamido)-2-[5-(N-hydroxypyridin-2(1H)-one)]acetylene regioisomers: a novel class of 5-lipoxygenase inhibitors” (Bioorg Med Chem Lett, 2008):
Active and inactive are the calls of the source. The rule behind the calls is not given here.

Tested on: Rattus norvegicus
Assay: Antiinflammatory activity against carrageenan-induced paw edema in po dosed rat after 3 hrs
Assay type: functional

Compound: NS(=O)(=O)c1cccc(C#Cc2ccc(=O)n(O)c2)c1
- Activity: inactive

Compound: NS(=O)(=O)c1ccc(C#Cc2ccc(=O)n(O)c2)cc1
- Activity: inactive

Compound: NS(=O)(=O)c1ccccc1C#Cc1ccc(=O)n(O)c1
- ED50: 86 mg/kg
